Laboratory results reported in paper PMC5884652, “New antimicrobial peptide kills drug-resistant pathogens without detectable resistance” (Oncotarget, 2018).
Ends that are not written are not given here.

What was measured:
[1] = system: S. aureus 1630; test: microbe, parasite or virus in culture; format: cell-based, Staphylococcus aureus; conditions: pH 7.4 (II); 10 mM sodium phosphate buffer, 10% LB; 37° C, 24 h; mean of 3 experiments
Excerpt: (§1) The method for peptide synthesis has been described in detail previously. E. coli ATCC 25922 (LB media), P. aeruginosa ATCC 15692 (NB+0.5% NaCl media), Listeria monocytogenes ATCC 3710 (LB media), Staphylococcus epidermidis ATCC 12228 (LB media), and S. aureus ATCC 29213 (TSB media) were obtained from the American Type Culture Collection (Manassas, VA, USA). Bacillus subtilis KCTC 1998 (LB media), Salmonella typhimurium KCTC 1926 (NB media), and Proteus vulgaris KCTC 2433 (NB media) were obtained from the Korean Collection for Type Cultures (Jeollabuk-do, Korea). E. coli CCARM 1238 was received from the Culture Collection of Antibiotic Resistant Microbes at Seoul Women’s University, Korea. Drug-resistant P. aeruginosa 3543, 3904, 3547, and 4007 and S. aureus 3126, 0027, 5157, 1635, 4761, 5159, 3359, 2122, 1630, 1870, 3511, 5156, and 3518 were resistant strains isolated from patients with otitis media in a Chonnam National University’s hospital.
(§2) The antibacterial activities of AMPs (melittin, clavaspirin, and its analogs) and conventional antibiotic drugs (erythromycin, gentamicin, ampicillin, and piperacidin) were determined using microdilution assays. Bacterial cells were cultured at 37° C in appropriate culture media at pH 5.5 or pH 7.4 until collection during the mid-log phase and suspended in 10 mM sodium phosphate buffer (pH 5.5 or pH 7.4) supplemented with 10% culture medium. Thereafter, 2× serial dilutions of each peptide (0.25–128 μM) or antibiotic (0.25–256 μM) were added to sterile 96-well plates, and aliquots of cell suspension (5 × 10^5 colony forming units (cfu)/mL) were seeded into each well. The samples were then incubated at 37° C for 24 h. At the end of the incubation, the minimum inhibitory concentrations (MICs) of the peptides were determined using a VERSA Max microplate reader (Molecular Devices Co., Sunnyvale, CA, USA) at a wavelength of 600 nm. […] MIC values were calculated as the mean of 3 independent experiments conducted in triplicate.

[2] = system: S. aureus 1870; test: microbe, parasite or virus in culture; format: cell-based, Staphylococcus aureus; conditions: pH 7.4 (II); 10 mM sodium phosphate buffer, 10% LB; 37° C, 24 h; mean of 3 experiments
Excerpt: as §1, §2

[3] = system: S. aureus 3126; test: microbe, parasite or virus in culture; format: cell-based, Staphylococcus aureus; conditions: pH 7.4 (II); 10 mM sodium phosphate buffer, 10% LB; 37° C, 24 h; mean of 3 experiments
Excerpt: as §1, §2

[4] = system: S. aureus 3511; test: microbe, parasite or virus in culture; format: cell-based, Staphylococcus aureus; conditions: pH 7.4 (II); 10 mM sodium phosphate buffer, 10% LB; 37° C, 24 h; mean of 3 experiments
Excerpt: as §1, §2

[5] = system: S. aureus 5156; test: microbe, parasite or virus in culture; format: cell-based, Staphylococcus aureus; conditions: pH 7.4 (II); 10 mM sodium phosphate buffer, 10% LB; 37° C, 24 h; mean of 3 experiments
Excerpt: as §1, §2

[6] = system: S. aureus CCARM 0027-infected hairless mice; test: Dermal infection and inflammation model; format: in vivo, mouse
Description: Male hairless mouse (aged 6 weeks, 5 mouse/group, total 7 groups) were injected intraepidermal with S. aureus CCARM 0027 (1 × 10^8 cfu/ml). The CSP-4 peptide (200, 100, 50, 25 μg/ml) was injected intraeptidermal into mice at 1 h after the S. aureus CCARM 0027 injection, samples of inflamed skin was collected after 7 days and 4-μm-thick sections were prepared as described in the preceding section. Each sample was then incubated for 30 min at 24° C with 5% bovine serum albumin, mouse anti-Toll-like receptor-2 (TLR-2) (AbFrontier, AB24192), mouse monoclonal anti-TNF-α (AbFrontier, AB1793), and mouse polyclonal anti-IL-1β (AbFrontier, AB1413). The samples were then washed with Tris-buffered saline containing Tween 20 buffer and incubated with HRP LF-SA5001-conjugated goat anti-mouse IgG, and stained with hematoxylin and eosin. The stained sections were examined under a fluorescence microscope.
Western blot analysis was performed as using changes in protein expression. Briefly, proteins extracted from the hairless mouse skin were separated for 3 h using 15% SDS-polyacrylamide gel electrophoresis and transferred to polyvinylidene fluoride membranes (Bio-Rad, Hercules, CA, USA) for 1 h at 90 V. The membranes were then incubated overnight at 4° C in 5% skim milk containing anti-GAPDH (LF-PA0018; Santa Cruz Biotechnology, Santa Cruz, CA, USA), mouse anti-TLR2 (AbFrontier, AB24192), mouse anti-NF-κB, (Santa Cruz Biotechnology, SC-71675), mouse anti-TNF-α (AbFrontier, AB1793), mouse anti-IL-1β (AbFrontier, AB1413), and mouse anti-cathelicidin (AbFrontier, AB93357). The membranes were then washed in Tris-buffered saline containing Tween 20 and incubated with the horseradish peroxidase (HRP)-conjugated secondary antibodies LF-SA5002 goat anti-rabbit IgG and LF-SA5001 goat anti-mouse IgG. The blots were developed using a Western Blot Detection kit (AbFrontier, LF-QC0103).
For scanning electron microscopy (SEM), S. aureus cells were cultured in LB medium (pH 5.5 or pH 7.4), washed 3 times with 10 mM sodium phosphate buffer, and stirred at 4000 rpm. CSP-4 was added to the cells and incubated at 25° C. After incubation, the cells were fixed in 4% glutaraldehyde for 20 min and dehydrated in 50% and then 100% ethanol (10 min each step) at 37° C. In addition, 7 days after inducing inflammation in hairless mouse skin tissue by infection with drug-resistant S. aureus CCARM 0027 strain or E. coli bacteria, samples of skin tissue were isolated, washed in PBS, fixed in 4% paraformaldehyde overnight at 4° C, and dehydrated in 50% and then 100% ethanol (2 h each step) at 37° C. Samples were then gold-coated and visualized by SEM (JSM-7100F; JEOL, Tokyo, Japan).

[7] = system: HaCaT cells; format: cell-based, human; conditions: 400 μM rhodamine-labeled peptide, 24 h, 37° C, fluorescence microscope
Description: (§3) www.oncotarget.com Oncotarget, Supplementary Materials
(§4) New antimicrobial peptide kills drug-resistant pathogens without […]
(§5) Supplementary Figure 1: The hemolytic activities of peptides were tested using hRBCs, and cytotoxicity was tested using a human keratinocyte line (HaCaT cells). The cells were treated with 400 μM peptide in PBS buffer containing 8% hRBCs (v/v). The samples were then incubated with mild agitation for 1 h at 37° C, and then spun down at 800 × g for 10 min. Changes in hRBC morphology were examined under a microscope. Cells were treated with 400 μM rhodamine-labeled peptides. HaCaT cells were seeded at 4 × 10^3 cells/well and then incubated for 24 h, treated with rhodamine-labeled peptide and incubated for an additional 24 h at 37° C in a humidified chamber under an atmosphere containing 5% CO2. The cells were examined under an inverted fluorescence phase contrast microscope. Scale bar, 100 μm.
(§6) (1 picture or pasted object on this page, not shown here)

[8] = system: hRBCs; format: cell-based, human; conditions: 400 μM peptide, PBS buffer containing 8% hRBCs, 1 h, 37° C, microscope
Description: as §3, §4, §5, §6

FLRFIGSVKHGKGHLVHHIGVAL-NH2 [CSP-4] showed an MIC [1] of 8 µM, an MIC [2] of 8 µM and an MIC [3] of 8 µM. The MIC [4] was 8 µM, the MIC [5] was 8 µM and the “Epidermal thickness and immune cell infiltration” value ([6]; 200 µg/mL and 100 µg/mL, skin collected after 7 days, hematoxylin and eosin) was “dose-dependent decrease”. The “TLR-2, NF-κB, TNF-α, IL-1β, and cathelicidin levels in skin” value ([6]; 200 μg/mL or 100 μg/mL, Western blot) was “concentration-dependent decreases”, the “Dermal collagen and elastin, uninfected mice treated with peptide alone” value ([6]; CSP-4 alone (200 µg/mL), SEM) was “not damaged” and the “Collagen and elastin damage in infected skin” value ([6]; SEM, 7 days after infection) was “dose-dependently reduced”. The “Binding to the cell membrane of HaCaT cells” value [7] was “no detectable hemolytic or membrane-binding activity” and the “Membrane damage of hRBCs” value [8] was “no detectable hemolytic or membrane-binding activity”.
